Results published in patent US20120214830A1, “BIOLOGICAL MARKERS PREDICTIVE OF ANTI-CANCER RESPONSE TO INSULIN-LIKE GROWTH FACTOR-1 RECEPTOR KINASE INHIBITORS IN HEPATOCELLULAR CARCINOMA” (OSI Pharmaceuticals, LLC, priority 2011, published 2012).

Columns and labels:
JHH-1 = assay: Cell Titer-Glo proliferation assay, 72 h; type: cell-based; conditions: Homo sapiens, JHH1; JHH-1 cells, erlotinib alone, determined beforehand; read-out: concentration to inhibit about 50% proliferation
Description: (§1) Two sensitive epithelial cell lines Hep3B (A), JHH-7 (B), one insensitive epithelial cell line JHH-1(C) or one insensitive mesenchymal-like cell line HLF (D) were treated serial dilution of OSI-906 in the presence of Erlotinib for 72 hours, and sensitivity to treatment was measured by proliferation assays.
(§2) Cell lines: Twenty-one HCC cell lines were purchased from either ATCC (HepG2, Hep3B, PLC/PRF/5, SK-Hepl, SNU-182, SNU-387, SNU-398, SNU-423, SNU-449, SNU-475) or Health Science Research Resources Bank (Japan) (HUH-1, HUH-6, HUH-7, HLE, HLF, JHH-1, JHH-2, JHH-4, JHH-5, JHH-6, JHH-7). All the cell lines were maintained in media as described by the vendors. For growth inhibition assays, cells were plated and allowed to proliferate for 24 hours. After 24 hours, cells had reached approximately 15% confluency, at which time serial dilutions of OSI-906 were added and the cells grown for a further 72 hours. Cell viability was assayed using the Cell Titer-Glo reagent (Promega Corp., Madison, Wis.).
(§3) Proliferation Assay. Proliferation was assayed using Cell Titer Glo assays (Promega) and was determined 72 hours following dosing with OSI-906. The basis of the assay is a luminescent quantitation of ATP present in a cell culture plate well. In essence, the greater the number of viable cells in the well, the greater the level of ATP present. The assay utilizes a substrate that binds ATP to produce a luminescent signal, which can be read on a luminometer. Unless otherwise noted, the manufacturer's instructions were followed exactly. Briefly, on Day 1, cells were plated in 120 μl of 10% serum-containing growth media at a density of 4000 cells/well in a white polystyrene 96 well assay plate. On day 2, cells were treated with 15 μl of 10× concentration of the IGF-1R inhibitor (e.g. OSI-906) or DMSO alone for a final well volume of 150 μl. After 72 h incubation with the inhibitor, the cells were assayed. Results were calculated as a fraction of the DMSO controlled cells.

Hep 3B = assay: Cell Titer-Glo proliferation assay, 72 h; type: cell-based; conditions: Homo sapiens; Hep3B cells, erlotinib alone, determined beforehand; read-out: concentration to inhibit about 50% proliferation
Description: as §1, §2, §3

[1] = system: ErbB3 in JHH5, HepG2, and HUH1 HCC cells; assay: ErbB3 protein expression after TGFβ treatment; type: cell-based, human; conditions: data not shown
Description: Preparation of Protein Lysates and Western Blotting: Cells were rinsed with PBS and lysed in RIPA buffer (Sigma #R0278) containing protease and phosphatase inhibitor cocktails (Sigma #P2850, P8340, P5726). Cell lysates were cleared by centrifugation and subjected to western blotting. Antibodies included: E-cadherin (Santa Cruz #sc21791), ErbB3 (Santa Cruz #sc285), vimentin (BD Pharmingen #550513), Zebl (Santa Cruz #sc25388).
(§4) TGFβ treatment: Cells were grown in medium supplemented with 10 ng/ml TGFβ (EMD Biosciences #616450) for 10 days with replating every 3-4 days. The cells were then lysed for either RT-PCR or CELLTITER-GLO® proliferation assays (Promega, Madison, Wis.).

[2] = system: AFP expression in HUH-1, JHH-5 and HepG2 cells; assay: AFP expression by RT-PCR after TGFβ treatment; type: cell-based, human; conditions: 10 ng/ml TGFβ for 10 days, HUH-1, JHH-5, HepG2
Description: FIG. 11: TGFβ decreases AFP expression and cell sensitivity to OSI-906. HUH-1, JHH-5 and HepG2 cells were treated with TGFβ and cells were either treated with OSI-906 for proliferation assays (A) or lysed to measure AFP expression by RT-PCR (B).
Taqman Assays: Total RNA was isolated with RNeasy kit (Qiagen) and treated with RNase-free DNase. Reverese transcription was performed with SuperScript III First-Strand Synthesis system (Invitrogen, Carlsbad, Calif.). The Gene Expression Assays were obtained from Applied Biosystems, Foster City, Calif. Quantitation of relative gene expression was conducted as described by the manufacturer using 50 ng of template. In order to determine relative expression across cell lines, amplification of AFP gene was compared to amplification of the gene for GAPDH as an internal standard.
as §4

Compound | IC50 (JHH-1) | IC50 (Hep 3B) | expression of the epithelial biomarker protein ErbB3 after TGFβ treatment [1] | AFP expression after TGFβ treatment [2]
C#Cc1cccc(Nc2ncnc3cc(OCCOC)c(OCCOC)cc23)c1 [Erlotinib, [6,7-bis(2-methoxyethoxy)-4-quinazolin-4-yl]-(3-ethynylphenyl) amine, reference compound] | 120 nM | 3300 nM | – | –
TGFβ | – | – | decreased | decreased
